Results as given in patent US20110224231A1, “Novel Lactams as Beta Secretase Inhibitors” (Pfizer Inc., priority 2008, published 2011).

What follows are compounds tested against T1, soluble human BACE (Homo sapiens, UniProt P56817) (assay: BACE activity Cell Free Assay (ELISA of cleaved synthetic APP substrate)).
T1 construct: cells secreting human recombinant soluble BACE; made in house; conditioned medium
Assay type: biochemical
Procedure: A synthetic APP substrate that can be cleaved by beta˜secretase and having N-terminal biotin is used to assay beta-secretase activity in the presence or absence of the inhibitory compounds. […] The substrate and test compounds are added to 384 well polypropylene plates. The reaction is initiated by the addition of soluble BACE enzyme to a final volume of 12.5 μL per well. The final assay conditions are: 0.001˜300 μM compound inhibitor, 0.05M sodium acetate (pH 4.5), 3 μM substrate, soluble human BACE, and 2% DMSO. Concentrated conditioned media from cells secreting human recombinant soluble BACE was titrated to provide a source of BACE enzyme. The cell media can be used as either a crude BACE prep or BACE can be purified using any number of techniques, including immobilized BACE inhibitor purification columns. The assay mixture is incubated for 1 hour at 37° C., and the reaction is quenched by the addition of an equal volume of 0.1M Tris, pH 8. Half of the quenched mix is incubated on clear streptavidin coated 384 well polystyrene plates for 1 hour. An ELISA is then performed using an in˜house antibody that specifically recognizes the new C˜terminus created after cleavage by BACE. […] (These polyclonal antibodies were raised in rabbits by immunizing with antigen comprised of six amino acid residues present at the carboxy terminus of the wild-type soluble APPbeta sequence (NH2-ISEVKM-COOH) or seven amino acid residues present at the carboxy terminus of the Swedish mutation at the beta cleavage site (NH2-EISEVNL˜COOH) conjugated to keyhole limpet hemacyanin by methods known to those skilled in the art.) A secondary anti˜species Horseradish Peroxidase (HRP) conjugated antibody is then utilized. The readout, following assay development with TMB substrate and quenching with 0.09M sulfuric acid, is absorbance at 450 nm.

T1 sequence (P56817 46-457 limits assumed): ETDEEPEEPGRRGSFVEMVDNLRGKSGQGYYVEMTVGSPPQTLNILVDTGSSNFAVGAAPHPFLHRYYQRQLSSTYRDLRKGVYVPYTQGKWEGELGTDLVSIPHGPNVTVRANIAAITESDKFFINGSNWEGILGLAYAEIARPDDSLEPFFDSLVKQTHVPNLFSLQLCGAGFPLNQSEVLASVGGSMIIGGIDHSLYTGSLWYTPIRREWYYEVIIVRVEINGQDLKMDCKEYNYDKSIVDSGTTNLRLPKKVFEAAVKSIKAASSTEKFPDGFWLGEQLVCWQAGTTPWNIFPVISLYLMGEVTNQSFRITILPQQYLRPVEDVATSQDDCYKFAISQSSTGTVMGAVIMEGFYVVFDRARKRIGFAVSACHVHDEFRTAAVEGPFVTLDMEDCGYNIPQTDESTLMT

Structure (SMILES)	IC50 [µM]
CCOc1cccc(CN2CCC3(C=CC(=O)N3c3cccc(F)c3)CC2C)c1 (racemic) [Example 1, Racemic (5R,7S),(5S,7R)-8-(3-ethoxybenzyl)-1-(3-fluorophenyl)-7-methyl-1,8-diazaspiro[4.5]dec-3-en-2-one]	10 to 100
Cc1ccc(Oc2cccc(CN3CCC4(C=CC(=O)N4c4cccc(F)c4)CC3C)c2)cc1 (racemic) [Example 2, Racemic (5R,7S),(5S,7R)-1-(3-fluorophenyl)-7-methyl-8-[3-(4-methylphenoxy)benzyl]-1,8-diazaspiro[4.5]dec-3-en-2-one]	1 to 10
COc1ccc(Oc2cccc(CN3CCC4(C=CC(=O)N4c4cccc(F)c4)CC3C)c2)cc1 (racemic) [Example 3, Racemic (5R,7S),(5S,7R)-1-(3-fluorophenyl)-8-[3-(4-methoxyphenoxy)benzyl]-7-methyl-1,8-diazaspiro[4.5]dec-3-en-2-one]	10 to 100
CC1CC2(C=CC(=O)N2c2cccc(F)c2)CCN1Cc1cccc(S(=O)(=O)N2CCCC2)c1 (racemic) [Example 4, Racemic (5R,7S),(5S,7R)-1-(3-fluorophenyl)-7-methyl-8-[3-(pyrrolidin-1-ylsulfonyl)benzyl]-1,8-diazaspiro[4.5]dec-3-en-2-one]	10 to 100
CC1CC2(C=CC(=O)N2c2cccc(F)c2)CCN1Cc1cccc(COc2cc(F)cc(F)c2)c1 (racemic) [Example 5, Racemic (5R,7S),(5S,7R)-8-{3-[(3,5-difluorophenoxy)methyl]benzyl}-1-(3-fluorophenyl)-7-methyl-1,8-diazaspiro[4.5]dec-3-en-2-one]	10 to 100
CC1CC2(C=CC(=O)N2c2cccc(F)c2)CCN1Cc1cccc(O)n1 (racemic) [Example 6, Racemic (5R,7S),(5S,7R)-1-(3-fluorophenyl)-8-[(6-hydroxypyridin-2-yl)methyl]-7-methyl-1,8-diazaspiro[4.5]dec-3-en-2-one]	100 to 300
CC1CC2(C=CC(=O)N2c2cccc(F)c2)CCN1Cc1cccc(C#N)c1 (racemic) [Example 7, Racemic 3-{[(5R,7S),(5S,7R)-1-(3-fluorophenyl)-7-methyl-2-oxo-1,8-diazaspiro[4.5]dec-3-en-8-yl]methyl}benzonitrile]	10 to 100
COc1cccc(CN2CCC3(C=CC(=O)N3c3cccc(F)c3)CC2C)c1 (racemic) [Example 8, Racemic (5R,7S),(5S,7R)-1-(3-fluorophenyl)-8-(3-methoxybenzyl)-7-methyl-1,8-diazaspiro[4.5]dec-3-en-2-one]	100 to 300
CC1CC2(C=CC(=O)N2c2cccc(F)c2)CCN1Cc1ccc(O)cc1O (racemic) [Example 9, Racemic (5R,7S),(5S,7R)-8-(2,4-dihydroxybenzyl)-1-(3-fluorophenyl)-7-methyl-1,8-diazaspiro[4.5]dec-3-en-2-one]	100 to 300
CCCn1nccc1CN1CCC2(C=CC(=O)N2c2cccc(F)c2)CC1C (racemic) [Example 10, Racemic (5R,7S),(5S,7R)-1-(3-fluorophenyl)-7-methyl-8-[(1-propyl-1H-pyrazol-5-yl)methyl]-1,8-diazaspiro[4.5]dec-3-en-2-one]	10 to 100
CC1CC2(C=CC(=O)N2c2cccc(F)c2)CCN1Cc1ccc2[nH]ccc2c1 (racemic) [Example 11, Racemic (5R,7S),(5S,7R)-1-(3-fluorophenyl)-8-(1H-indol-5-ylmethyl)-7-methyl-1,8-diazaspiro[4.5]dec-3-en-2-one]	10 to 100
COc1cc(CN2CCC3(C=CC(=O)N3c3cccc(F)c3)CC2C)ccc1O (racemic) [Example 12, Racemic (5R,7S),(5S,7R)-1-(3-fluorophenyl)-8-(4-hydroxy-3-methoxybenzyl)-7-methyl-1,8-diazaspiro[4.5]dec-3-en-2-one]	1 to 10
COc1cc(CN2CCC3(C=CC(=O)N3c3cccc(F)c3)CC2C)ccc1F (racemic) [Example 13, Racemic (5R,7S),(5S,7R)-8-(4-fluoro-3-methoxybenzyl)-1-(3-fluorophenyl)-7-methyl-1,8-diazaspiro[4.5]dec-3-en-2-one]	10 to 100
COc1ccc(F)c(CN2CCC3(C=CC(=O)N3c3cccc(F)c3)CC2C)c1 (racemic) [Example 14, Racemic (5R,7S),(5S,7R)-8-(2-fluoro-5-methoxybenzyl)-1-(3-fluorophenyl)-7-methyl-1,8-diazaspiro[4.5]dec-3-en-2-one]	100 to 300
CC1CC2(C=CC(=O)N2c2cccc(F)c2)CCN1Cc1ccc(O)c(Cl)c1 (racemic) [Example 15, Racemic (5R,7S),(5S,7R)-8-(3-chloro-4-hydroxybenzyl)-1-(3-fluorophenyl)-7-methyl-1,8-diazaspiro[4.5]dec-3-en-2-one]	1 to 10
CC(C)Oc1cccc(CN2CCC3(C=CC(=O)N3c3cccc(F)c3)CC2C)c1 (racemic) [Example 16, Racemic (5R,7S),(5S,7R)-1(3-fluorophenyl)-8-(3-isopropoxybenzyl)-7-methyl-1,8-diazaspiro[4.5]dec-3-en-2-one]	1 to 10
CCCOc1cccc(CN2CCC3(C=CC(=O)N3c3cccc(F)c3)CC2C)c1 (racemic) [Example 17, Racemic (5R,7S),(5S,7R)-1-(3-fluorophenyl)-7-methyl-8-(3-propoxybenzyl)-1,8-diazaspiro[4.5]dec-3-en-2-one]	10 to 100
CC(C)COc1cccc(CN2CCC3(C=CC(=O)N3c3cccc(F)c3)CC2C)c1 (racemic) [Example 18, Racemic (5R,7S),(5S,7R)-1-(3-fluorophenyl)-8-(3-isobutoxybenzyl)-7-rnethyl-1,8-diazaspiro[4.5]dec-3-en-2-one]	10 to 100
CC1CC2(C=CC(=O)N2c2cccc(F)c2)CCN1Cc1cccc(-c2ccccn2)c1 (racemic) [Example 19, Racemic (5R,7S),(5S,7R)-1-(3-fluorophenyl)-7-methyl-8-(3-pyridin-2-ylbenzyl)-1,8-diazaspiro[4.5]dec-3-en-2-one]	10 to 100
CC1CC2(C=CC(=O)N2c2cccc(F)c2)CCN1Cc1cccc(OC2CCCC2)c1 (racemic) [Example 20, Racemic (5R,7S),(5S,7R)-8-[3-(cyclopentyloxy)benzyl]-1-(3-fluorophenyl)-7-methyl-1,8-diazaspiro[4.5]dec-3-en-2-one]	10 to 100
Cc1ccncc1-c1cccc(CN2CCC3(C=CC(=O)N3c3cccc(F)c3)CC2C)c1 (racemic) [Example 21, Racemic (5R,7S),(5S,7R)-1-(3-fluorophenyl)-7-methyl-8-[3-(4-methylpyridin-3-yl)benzyl]-1,8-diazaspiro[4.5]dec-3-en-2-one]	1 to 10
CC1CC2(C=CC(=O)N2c2cccc(F)c2)CCN1Cc1cccc(Oc2ccccc2)c1 (racemic) [Example 22, Racemic (5R,7S),(5S,7R)-1-(3-fluorophenyl)-7-methyl-8-(3-phenoxybenzyl)-1,8-diazaspiro[4.5]dec-3-en-2-one]	10 to 100
CC1CC2(C=CC(=O)N2c2cccc(F)c2)CCN1Cc1cc(Br)ccc1F (racemic) [Example 23, Racemic (5R,7S),(5S,7R)-8-(5-bromo-2-fluorobenzyl)-1-(3-fluorophenyl)-7-methyl-1,8-diazaspiro[4.5]dec-3-en-2-one]	10 to 100
CC1CC2(C=CC(=O)N2c2cccc(F)c2)CCN1Cc1ccc(F)c(Br)c1 (racemic) [Example 24, Racemic (5R,7S),(5S,7R)-8-(3-bromo-4-fluorobenzyl)-1-(3-fluorophenyl)-7-methyl-1,8-diazaspiro[4.5]dec-3-en-2-one]	100 to 300
CC1CC2(C=CC(=O)N2c2cccc(F)c2)CCN1Cc1cccc(-c2cncc(C#N)c2)c1 (racemic) [Example 25, Racemic 5-(3-{[(5R,7S),(5S,7R)-1-(3-fluorophenyl)-7-methyl-2-oxo-1,8-diazaspiro[4.5]dec-3-en-8-yl]methyl}phenyl)nicotinonitrile]	10 to 100
CC1CC2(C=CC(=O)N2c2cccc(F)c2)CCN1Cc1nc(-c2ccc(C#N)cc2)cs1 (racemic) [Example 26, Racemic 4-(2-{[(5R,7S),(5S,7R)-1-(3-fluorophenyl)-7-methyl-2-oxo-1,8-diazaspiro[4.5]dec-3-en-8-yl]methyl}-1,3-thiazol-4-yl)benzonitrile]	10 to 100
CC1CC2(C=CC(=O)N2c2cccc(F)c2)CCN1Cc1nc(-c2cccc(C#N)c2)cs1 (racemic) [Example 27, Racemic 3-(2-{[(5R,7S),(5S,7R)-1-(3-fluorophenyl)-7-methyl-2-oxo-1,8-diazaspiro[4.5]dec-3-en-8-yl]methyl}-1,3-thiazol-4-yl)benzonitrite]	10 to 100
CC(C)NS(=O)(=O)c1cccc(CN2CCC3(C=CC(=O)N3c3cccc(F)c3)CC2C)c1 (racemic) [Example 28, Racemic 3-{[(5R,7S),(5S,7R)-1-(3-fluorophenyl)-7-methyl-2-oxo-1,8-diazaspiro[4.5]dec-3-en-8-yl]methyl}-N-isopropylbenzenesulfonamide]	10 to 100
CC1CC2(C=CC(=O)N2c2cccc(F)c2)CCN1Cc1cccc(Oc2ccc(Cl)cc2)c1 (racemic) [Example 29, Racemic (5R,7S),(5S,7R)-8-[3-(4-chlorophenoxy)benzyl]-1-(3-fluorophenyl)-7-methyl-1,8-diazaspiro[4.5]dec-3-en-2-one]	10 to 100
